Results on 3 molecules are retold here after publication PMC4019984, “Kinase and channel activity of TRPM6 are co-ordinated by a dimerization motif and pocket interaction” (Biochemical Journal, 2014).

The target in one assay is T1, TRPM6-(1730–end) (Homo sapiens, UniProt Q9BX84).
T1 construct: expressed in transfected cells; host or cells: HEK-293
T1 sequence (Q9BX84 1730-2022 limits assumed): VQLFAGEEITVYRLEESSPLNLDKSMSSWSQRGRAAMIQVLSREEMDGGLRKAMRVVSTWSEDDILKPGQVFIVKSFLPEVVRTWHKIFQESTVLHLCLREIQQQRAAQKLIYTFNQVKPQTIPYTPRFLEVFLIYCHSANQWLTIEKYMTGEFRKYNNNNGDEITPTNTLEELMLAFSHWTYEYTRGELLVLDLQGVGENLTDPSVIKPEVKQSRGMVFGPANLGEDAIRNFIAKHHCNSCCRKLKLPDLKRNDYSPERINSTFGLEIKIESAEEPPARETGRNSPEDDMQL
Put plainly: Kinase activation assay (MBP substrate), TRPM6-(1730–end). It counts as biochemical. To be noted: FLAG-tagged TRPM6-(1730–end) immunoprecipitated from HEK-293; MBP 1 μg, 0.1 mM [γ-32P]ATP, 10 mM MgCl2, 30 min at 30°C; increasing peptide concentrations; read-out: half-maximal activation. As for the experimental part:
In assays using E. coli-expressed TRPM6, reactions were set up in a volume of 20 μl, with substrate MBP (myelin basic protein) at 1 μg and kinase at 0.1–10 μg in buffer A containing 0.1% 2-mercaptoethanol, 10 mM MgCl2 and 0.1 mM [γ-^32P]ATP (~1000 cpm·pmol^−1). Assays were carried out for 30 min at 30°C with shaking at 1000 rev./min and terminated by addition of SDS sample buffer. […] Proteins were detected by Coomassie Blue staining and gels were imaged using an Epson scanner and dried completely using a gel dryer (Bio-Rad Laboratories). Incorporation of [γ-^32P]ATP into substrates was analysed by autoradiography using Hyperfilm (GE Healthcare) or quantified by Cerenkov counting.
Figure 2 Identification of dimerization motif residues in TRPM6 (A) Structural model of TRPM7 α-kinase depicting the N-terminal non-catalytic α-helix of one monomer that interacts with the kinase segment of the other monomer. (B) Fluorescence polarization analysis of wild-type (WT) and mutant (Mut) dimerization motif peptides with E. coli-purified GST-tagged TRPM6-(1730–end). […] The samples were analysed by immunoblotting with anti-GST antibody (top panel). […] Proteins were separated by SDS/PAGE, stained with Coomassie Blue (top and middle gels) and MBP phosphorylation was detected by autoradiography (bottom gel). […] The pull-down samples were analysed by immunoblotting with anti-FLAG antibody (top panel). […]

The target in assay [1] is T2, GST-tagged TRPM6-(1730–end) (Homo sapiens, UniProt Q9BX84).
T2 construct: E. coli-purified GST-tagged TRPM6-(1730–end); made in house; host or cells: E. coli BL21
T2 sequence (Q9BX84 1730-2022 limits assumed): T1 sequence (Q9BX84 1730-2022 limits assumed)
Nature of the assay: Fluorescence polarization binding assay, TRPM6-(1730–end). As to conditions: 100 nM labelled peptide, increasing concentrations of TRPM6-(1730–end), pH 7.5, room temperature. As for the experimental part: The peptides used for the assay contained a C-terminal linker leading to the peptides […] (wild-type) and […] (mutant). The peptides were labelled with Lumio Green (Invitrogen) following the manufacturer's protocol. Fluorescence polarization measurements were performed at room temperature in buffer containing 25 mM Tris/HCl (pH 7.5), 200 mM NaCl and 5 mM 2-mercaptoethanol. Binding assays were performed by combining 100 nM labelled peptide with increasing concentrations of TRPM6 kinase, in a total volume of 30 μl of buffer, and end-point polarization measurements were made using the BMG PheraStar plate reader. The polarization values were measured at an excitation wavelength of 485 nm and an emission wavelength of 538 nm, and were corrected for fluorescent probe alone. At least ten data points were measured for each curve, and each data point was measured in duplicate. Data were analysed using GraphPad Prism 5 and curve-fitting of the data from two independent experiments was performed with one-site specific binding with Hill slope [model Y=BmaxX^h/(Kd^h+X^h)] to determine Kd values.
(Figure 2A). We next utilized fluorescence polarization technology, a sensitive method to evaluate interactions between proteins and peptides. […]
(Polarisation of emitted light reports the rotation of a fluorescent probe.)

In assay [2] the target is T3, GST-tagged TRPM6-(1730–end), E. coli-purified, Q9BX84.
T3 chain: T1 sequence (Q9BX84 1730-2022 limits assumed)
Put plainly: fluorescence polarisation. As to conditions: chain shown with the change; read at the highest titration point, 2.5 µM TRPM6-(1730-end); parent: est. 94; read off a plot.

Regarding `CC[C@H](C)[C@H](NC(=O)[C@H](C)NC(=O)[C@H](CO)NC(=O)[C@H](Cc1ccc(O)cc1)NC(=O)[C@H](Cc1c[nH]cn1)NC(=O)[C@H](Cc1c[nH]cn1)NC(=O)[C@H](Cc1c[nH]cn1)NC(=O)[C@@H]1CCCN1C(=O)[C@H](CCC(=O)O)NC(=O)[C@H](CCC(N)=O)NC(=O)[C@@H]1CCCN1C(=O)[C@H](CO)NC(=O)[C@H](CCCCN)NC(=O)[C@@H](N)CC(C)C)C(=O)N[C@@H](CCC(=O)O)C(=O)N[C@@H](CCCNC(=N)N)C(=O)N[C@@H](CC(N)=O)C(=O)N[C@@H](CC(N)=O)C(=O)N[C@@H](CC(C)C)C(=O)N[C@@H](CCSC)C(=O)N[C@@H](CCCNC(=N)N)C(=O)N[C@@H](CC(C)C)C(=O)N[C@@H](CO)C(=O)N[C@@H](CCC(N)=O)C(=O)N[C@H](C(=O)N[C@H](C(=O)N1CCC[C@H]1C(=O)N[C@@H](Cc1ccccc1)C(=O)N[C@H](C(=O)N1CCC[C@H]1C(=O)N[C@H](C(=O)N[C@@H](CCC(N)=O)C(=O)N[C@@H](CC(C)C)C(=O)N[C@@H](Cc1ccccc1)C(=O)N[C@@H](C)C(=O)NCC(=O)N[C@@H](CCC(=O)O)C(=O)N[C@@H](CCC(=O)O)C(=O)N[C@H](C(=O)N[C@H](C(=O)N[C@H](C(=O)O)C(C)C)[C@@H](C)O)[C@@H](C)CC)C(C)C)[C@@H](C)O)[C@@H](C)CC)[C@@H](C)O` [dimerization motif peptide], at TRPM6-(1730–end), the EC50 is about 15 µM.
Consider “LKSPQEPHHHYSAIERNNAMRASQTIPFTPVQLFAGEEITVGGCCPGCC [mutant dimerization motif peptide, mutant (L1718A+L1721A) dimerization motif peptide with C-terminal linker, labelled with Lumio Green]”, for which the “fluorescence polarization increase (binding)” value in assay [1] was “only background increases in fluorescence polarization were observed”.

B1: fluorescently labelled dimerization motif peptide (wild-type) with C-terminal linker GGCCPGCC L1718A; L1721A (peptide)
chain: LKSPQEPHHHYSAIERNNAMRASQTIPFTPVQLFAGEEITVGGCCPGCC
As to B1, in assay [2], the response worked out at 24 mP.
